From patent publication US20240246967A1, “AXL COMPOUNDS” (ARCUS BIOSCIENCES, INC., priority 2021, published 2024)

Assays:
[1] = molecular target: T1, human MER (Homo sapiens, UniProt Q12866); test: HTRF KinEASE-TK biochemical potency assay, MER; conditions: 1 nM MER, 700 μM ATP, 800 nM TK Substrate-biotin
T1 construct: purchased Invitrogen
T1 sequence (Q12866 21-999): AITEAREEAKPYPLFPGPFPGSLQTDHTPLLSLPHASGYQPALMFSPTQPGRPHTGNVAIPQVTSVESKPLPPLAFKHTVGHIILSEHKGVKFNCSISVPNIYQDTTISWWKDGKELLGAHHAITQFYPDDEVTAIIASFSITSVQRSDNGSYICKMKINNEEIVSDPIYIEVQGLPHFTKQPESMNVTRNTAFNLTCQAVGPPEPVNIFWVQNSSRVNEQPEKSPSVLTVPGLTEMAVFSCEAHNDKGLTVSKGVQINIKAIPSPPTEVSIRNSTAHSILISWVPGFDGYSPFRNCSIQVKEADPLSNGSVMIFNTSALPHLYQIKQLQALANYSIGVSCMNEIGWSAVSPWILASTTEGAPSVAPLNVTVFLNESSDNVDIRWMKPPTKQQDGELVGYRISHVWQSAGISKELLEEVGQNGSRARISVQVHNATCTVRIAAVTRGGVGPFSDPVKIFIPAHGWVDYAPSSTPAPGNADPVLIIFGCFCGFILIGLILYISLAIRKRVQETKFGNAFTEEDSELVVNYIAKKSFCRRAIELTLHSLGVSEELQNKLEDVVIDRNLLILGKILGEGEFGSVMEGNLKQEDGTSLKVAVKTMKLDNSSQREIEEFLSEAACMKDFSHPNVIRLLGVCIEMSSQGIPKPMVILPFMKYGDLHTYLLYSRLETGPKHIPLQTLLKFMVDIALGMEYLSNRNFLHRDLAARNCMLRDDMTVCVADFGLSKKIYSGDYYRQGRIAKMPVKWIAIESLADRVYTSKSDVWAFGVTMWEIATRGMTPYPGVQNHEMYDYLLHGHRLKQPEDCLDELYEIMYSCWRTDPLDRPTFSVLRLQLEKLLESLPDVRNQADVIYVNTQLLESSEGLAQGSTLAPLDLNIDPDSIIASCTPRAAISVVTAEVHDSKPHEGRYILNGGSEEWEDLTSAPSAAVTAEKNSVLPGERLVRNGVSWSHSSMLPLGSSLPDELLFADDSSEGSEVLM
Procedure: (§1) Purified recombinant human AXL, TYRO3 and MER proteins were purchased from Invitrogen™. 10 nM AXL, 2 nM TYRO3 or MER were incubated with varying concentrations of compounds in 50 mM HEPES, pH 7.4, 10 mM MgCl2, 0.01% BSA, 1 mM DTT and 2% DMSO in a total volume of 20 μl in a 384-well microplate (Corning™ #3640) at RT for 1 h. The AXL, TYRO3 and MER enzymatic reaction was initiated by transferring 10 μl of enzyme and compound mixture into 10 μl of 1.6 μM TK Substrate-biotin (HTRF® KinEASE-TK kit, Cisbio) and 1400 μM ATP pre-incubated in 50 mM HEPES, pH 7.4, 10 mM MgCl2, 0.01% BSA, 1 mM DTT in a 384-well microplate (Corning™ #3640) at RT, giving the final reaction conditions: 5 nM AXL, 1 nM TYRO3 or MER, 800 nM TK Substrate-biotin and 700 μM ATP in 50 mM HEPES, pH 7.4, 10 mM MgCl2, 0.01% BSA, 1 mM DTT and 1% DMSO with varying concentrations of compounds. Following 2 h incubation at RT, the AXL, TYRO3 and MER enzymatic reaction was stopped by transfer of 10 μl of reaction into 10 μl of detection mix (400 nM Streptavidin-XL665, 200-fold dilution TK Antibody-Cryptate and detection buffer, HTRF® KinEASE-TK kit, Cisbio) in a white 384-well microplate (Perkin Elmer, OptiPlate 384). After 1 h incubation at RT, the plate was put into a plate reader (Evision) to read at 665/620 nm (acceptor/donor) for HTRF. The value of the DMSO blank (MIN inhibition=100% activity) was used as a negative control. The positive control was established by adding 5 μl of enzyme and DMSO mixture into 10 μl of detection mix followed by addition of 5 μl of TK Substrate-biotin and ATP mixture (MAX inhibition=0% activity). To calculate the percent activity, Equation 1 was used. Ratio 665/620 is the value at a given compound concentration: […]

[2] = molecular target: T2, human TYRO3 (Homo sapiens, UniProt Q06418); test: HTRF KinEASE-TK biochemical potency assay, TYRO3; conditions: 1 nM TYRO3, 700 μM ATP, 800 nM TK Substrate-biotin
T2 construct: purchased Invitrogen
T2 sequence (Q06418 41-890): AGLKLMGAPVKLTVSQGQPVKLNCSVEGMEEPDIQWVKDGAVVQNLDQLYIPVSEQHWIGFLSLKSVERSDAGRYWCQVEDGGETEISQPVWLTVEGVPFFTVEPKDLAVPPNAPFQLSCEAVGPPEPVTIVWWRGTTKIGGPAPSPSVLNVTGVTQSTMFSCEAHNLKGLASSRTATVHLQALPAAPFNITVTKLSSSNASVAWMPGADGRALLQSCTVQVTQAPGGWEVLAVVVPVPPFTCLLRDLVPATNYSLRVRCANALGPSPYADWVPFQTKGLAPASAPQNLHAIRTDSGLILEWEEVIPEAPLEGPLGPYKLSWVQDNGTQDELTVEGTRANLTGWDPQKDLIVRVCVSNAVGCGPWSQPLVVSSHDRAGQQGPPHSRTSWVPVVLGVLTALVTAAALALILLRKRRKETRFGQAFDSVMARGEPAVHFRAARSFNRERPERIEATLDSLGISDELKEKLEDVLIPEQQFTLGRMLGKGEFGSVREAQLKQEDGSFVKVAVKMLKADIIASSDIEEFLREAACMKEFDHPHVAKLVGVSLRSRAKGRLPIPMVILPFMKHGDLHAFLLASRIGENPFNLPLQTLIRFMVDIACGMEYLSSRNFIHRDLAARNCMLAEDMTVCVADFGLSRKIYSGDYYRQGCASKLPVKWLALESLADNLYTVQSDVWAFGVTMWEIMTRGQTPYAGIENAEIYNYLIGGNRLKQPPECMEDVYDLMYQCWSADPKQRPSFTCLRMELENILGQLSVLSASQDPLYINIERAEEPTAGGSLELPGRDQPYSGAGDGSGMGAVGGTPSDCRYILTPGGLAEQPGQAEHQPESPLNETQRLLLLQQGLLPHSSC
Procedure: as §1

Row | SMILES | IC50 [1] | IC50 [2]
1 | C[C@@H]1CCCN1C1(C)CCc2ccc(-c3cnc4[nH]nc(-c5ccc(S(N)(=O)=O)cc5)c4c3)cc2CC1 (stereo partly drawn) [Example 95, 4-(5-(7-Methyl-7-((R)-2-methylpyrrolidin-1-yl)-6,7,8,9-tetrahydro-5H-benzo[7]annulen-2-yl)-1H-pyrazolo[3,4-b]pyridin-3-yl)benzenesulfonamide] | 100 to 1000 nM | < 100 nM
2 | CC(C)(C)S(=O)(=O)c1ccc(-c2n[nH]c3ncc(-c4ccc5c(c4)CC[C@@H](N4C6COCC4C6)CC5)cc23)cc1 [Example 124, 6-[(7S)-2-{3-[4-(2-methylpropane-2-sulfonyl)phenyl]-2H-pyrazolo[3,4-b]pyridin-5-yl}-6,7,8,9-tetrahydro-5H-benzo[7]annulen-7-yl]-3-oxa-6-azabicyclo[3.1.1]heptane] | 100 to 1000 nM | 100 to 1000 nM
3 | C[C@@H]1CCCN1C1(C)CCc2ccc(-c3cnc4[nH]nc(-c5ccc(S(=O)(=O)C6CCCC6)cc5)c4c3)cc2CC1 (stereo partly drawn) [Example 45, 3-(4-(Cyclopentylsulfonyl)phenyl)-5-(7-methyl-7-((R)-2-methylpyrrolidin-1-yl)-6,7,8,9-tetrahydro-5H-benzo[7]annulen-2-yl)-1H-pyrazolo[3,4-b]pyridine] | > 1000 nM | 100 to 1000 nM
4 | CC1(N[C@H]2CCOC2)CCc2ccc(-c3cnc4[nH]nc(-c5ccc(S(=O)(=O)C6CC6)cc5)c4c3)cc2CC1 (stereo partly drawn) [Example 115, (3S)-N-(2-{3-[4-(Cyclopropanesulfonyl)phenyl]-1H-pyrazolo[3,4-b]pyridin-5-yl}-7-methyl-6,7,8,9-tetrahydro-5H-benzo[7]annulen-7-yl)oxolan-3-amine] | 100 to 1000 nM | 100 to 1000 nM
5 | C[C@@H]1CCCN1C1CCc2ccc(-c3cnc4[nH]nc(-c5ccc(C6(O)CCC6)c(Cl)c5)c4c3)cc2CC1 (stereo partly drawn) [Example 62, 1-[2-Chloro-4-(5-{7-[(2R)-2-methylpyrrolidin-1-yl]-6,7,8,9-tetrahydro-5H-benzo[7]annulen-2-yl}-1H-pyrazolo[3,4-b]pyridin-3-yl)phenyl]cyclobutan-1-ol] | 100 to 1000 nM | 100 to 1000 nM
6 | CS(=O)(=O)c1ccc(-c2n[nH]c3ncc(-c4ccc5c(c4)CCN(C4CCCC4)CC5)cc23)cc1 [Example 30, 3-Cyclopentyl-7-(3-(4-(methylsulfonyl)phenyl)-1H-pyrazolo[3,4-b]pyridin-5-yl)-2,3,4,5-tetrahydro-1H-benzo[d]azepine] | 100 to 1000 nM | < 100 nM
7 | COCCN1CCc2ccc(-c3cnc4[nH]nc(-c5ccc(C(C)(C)O)c(Cl)c5)c4c3)cc2CC1 [Example 34, 2-(2-Chloro-4-(5-(3-(2-methoxyethyl)-2,3,4,5-tetrahydro-1H-benzo[d]azepin-7-yl)-1H-pyrazolo[3,4-b]pyridin-3-yl)phenyl)propan-2-ol] | > 1000 nM | 100 to 1000 nM
8 | Cc1cc(-c2n[nH]c3ncc(-c4ccc5c(c4)CC[C@@H](N4CCCC4)CC5)cc23)cc(C)c1C(N)=O [Example 49, 2,6-Dimethyl-4-{5-[(7S)-7-(pyrrolidin-1-yl)-6,7,8,9-tetrahydro-5H-benzo[7]annulen-2-yl]-1H-pyrazolo[3,4-b]pyridin-3-yl}benzamide] | 100 to 1000 nM | < 100 nM
9 | C[C@H]1CCCN1C1CCc2ccc(-c3cnc4[nH]nc(-c5ccc(S(C)(=O)=O)cc5)c4c3)cc2CC1 (stereo partly drawn) [Example 36, 5-(7-((S)-2-Methylpyrrolidin-1-yl)-6,7,8,9-tetrahydro-5H-benzo[7]annulen-2-yl)-3-(4-(methylsulfonyl)phenyl)-1H-pyrazolo[3,4-b]pyridine] | 100 to 1000 nM | < 100 nM
10 | O=S(=O)(c1ccc(-c2n[nH]c3ncc(-c4ccc5c(c4)CCN(C4CCOCC4)CC5)cc23)cc1)C1CC1 [Example 26, 7-{3-[4-(Cyclopropanesulfonyl)phenyl]-1H-pyrazolo[3,4-b]pyridin-5-yl}-3-(oxan-4-yl)-2,3,4,5-tetrahydro-1H-3-benzazepine] | > 1000 nM | 100 to 1000 nM
11 | C[C@H]1CCCN1C1(C)CCc2ccc(-c3cnc4[nH]nc(-c5ccc(C(C)(C)O)c(Cl)c5)c4c3)cc2CC1 (stereo partly drawn) [Example 58, 2-[2-Chloro-4-(5-{7-methyl-7-[(2S)-2-methylpyrrolidin-1-yl]-6,7,8,9-tetrahydro-5H-benzo[7]annulen-2-yl}-1H-pyrazolo[3,4-b]pyridin-3-yl)phenyl]propan-2-ol] | 100 to 1000 nM | 100 to 1000 nM
12 | C[C@H]1CCCN1C1(C)CCc2ccc(-c3cnc4[nH]nc(-c5ccc(S(=O)(=O)C6CC6)cc5)c4c3)cc2CC1 (stereo partly drawn) [Example 5, (2S)-1-(2-{3-[4-(Cyclopropanesulfonyl)phenyl]-1H-pyrazolo[3,4-b]pyridin-5-yl}-7-methyl-6,7,8,9-tetrahydro-5H-benzo[7]annulen-7-yl)-2-methylpyrrolidine] | 100 to 1000 nM | < 100 nM
13 | CC(C)S(=O)(=O)c1ccc(-c2n[nH]c3ncc(-c4ccc5c(c4)CC[C@@H](N4CCCC4)CC5)cc23)cc1 [Example 42, (S)-3-(4-(Isopropylsulfonyl)phenyl)-5-(7-(pyrrolidin-1-yl)-6,7,8,9-tetrahydro-5H-benzo[7]annulen-2-yl)-1H-pyrazolo[3,4-b]pyridine] | 100 to 1000 nM | < 100 nM
14 | CC1(N2CCC2)CCc2ccc(-c3cnc4[nH]nc(-c5ccc(S(=O)(=O)C6CC6)cc5)c4c3)cc2CC1 (stereo not drawn) [Example 7, 1-(2-{3-[4-(Cyclopropanesulfonyl)phenyl]-1H-pyrazolo[3,4-b]pyridin-5-yl}-7-methyl-6,7,8,9-tetrahydro-5H-benzo[7]annulen-7-yl)azetidine] | 100 to 1000 nM | 100 to 1000 nM
15 | C[C@@H]1CCCN1C1(C)CCc2ccc(-c3cnc4[nH]nc(-c5ccc(N6CCOCC6)cc5)c4c3)cc2CC1 (stereo partly drawn) [Example 107, 4-[4-(5-{7-Methyl-7-[(2R)-2-methylpyrrolidin-1-yl]-6,7,8,9-tetrahydro-5H-benzo[7]annulen-2-yl}-1H-pyrazolo[3,4-b]pyridin-3-yl)phenyl]morpholine] | > 1000 nM | 100 to 1000 nM
